The subject of the data set is rodent carcinogenicity bioassays, tumor incidence. Kind of data set: CCRIS carcinogenicity studies. The conditions noted are these: Dose: 0, Dose: 0. From the text:
The CCRIS database contains chemical records with carcinogenicity, mutagenicity, tumor promotion, and tumor inhibition test results. It was developed by the National Cancer Institute (NCI). Data are derived from studies cited in primary journals, current awareness tools, NCI reports, and other sources. Test results have been reviewed by experts in carcinogenesis and mutagenesis.
CCRIS provides historical information from the years 1985 - 2011. It is no longer updated.
This is an archive assay for CCRIS carcinogenicity studies.

The source made the active and inactive calls. How the calls were made is not given here.

For `CCCCCc1cc(O)c2c(c1)OC(C)(C)[C@@H]1CCC(C)=C[C@@H]21`, the carcinogen call is “equivocal” (Species: MOUSE, Strain/Sex: B6C3F1/FEMALE, Route: GAVAGE, 125, 250, 500 MG/KG BW IN CORN OIL FOR 105-106 WK (STUDY DURATION: 105-106 WK), 125, 250, 500 MG/KG BW IN CORN OIL FOR 105-106 WK (STUDY DURATION: 105-106 WK), Tumor Site: Type of Lesion: THYROID GLAND: FOLLICULAR CELL ADENOMA); “equivocal” (Species: MOUSE, Strain/Sex: B6C3F1/MALE, Route: GAVAGE, 125, 250, 500 MG/KG BW IN CORN OIL FOR 104-105 WK (STUDY DURATION: 104-105 WK), 125, 250, 500 MG/KG BW IN CORN OIL FOR 104-105 WK (STUDY DURATION: 104-105 WK), Tumor Site: Type of Lesion: THYROID GLAND: FOLLICULAR CELL ADENOMA); “inactive; negative” (Species: RAT, Strain/Sex: F344/FEMALE, Route: GAVAGE, 12.5, 25, 50 MG/KG BW IN CORN OIL FOR 104-105 WK (STUDY DURATION: 104-105 WK), 12.5, 25, 50 MG/KG BW IN CORN OIL FOR 104-105 WK (STUDY DURATION: 104-105 WK)); “inactive; negative” (Species: RAT, Strain/Sex: F344/MALE, Route: GAVAGE, 12.5, 25, 50 MG/KG BW IN CORN OIL FOR 104-105 WK (STUDY DURATION: 104-105 WK), 12.5, 25, 50 MG/KG BW IN CORN OIL FOR 104-105 WK (STUDY DURATION: 104-105 WK)).
`NNC(=O)c1ccccc1`: the carcinogen call reads like this: (Species: MOUSE, Strain/Sex: SWISS/FEMALE, Route: ORAL, 0.1% SOLUTION IN DRINKING WATER STARTING AT 6 WK OF AGE AND CONTINUED FOR LIFE FOR AN AVERAGE DAILY INTAKE OF 0, 0.57, 0.1% SOLUTION IN DRINKING WATER STARTING AT 6 WK OF AGE AND CONTINUED FOR LIFE FOR AN AVERAGE DAILY INTAKE OF 0, 0.57, Tumor Site: Type of Lesion: LUNG: ADENOMA, LUNG: ADENOMA AND ADENOCARCINOMA) “active; positive”; (Species: MOUSE, Strain/Sex: SWISS/MALE, Route: ORAL, 0.01% SOLUTION IN DRINKING WATER STARTING AT 6 WK OF AGE AND CONTINUED FOR LIFE FOR AN AVERAGE DAILY INTAKE OF 0, 0.8, 0.01% SOLUTION IN DRINKING WATER STARTING AT 6 WK OF AGE AND CONTINUED FOR LIFE FOR AN AVERAGE DAILY INTAKE OF 0, 0.8, Tumor Site: Type of Lesion: LUNG: ADENOMA, LUNG: ADENOMA AND ADENOCARCINOMA) “active; positive”.
Consider `NC(=O)OC1CO1` (stereo not drawn), for which the carcinogen call (Species: MOUSE, Strain/Sex: B6C3F1/MALE, Route: INTRAPERITONEAL, 0.5, 1.25, 2.5 UG/G BW IN 10 µL TRIOCTANOIN ONCE (STUDY DURATION: 9 MO), 0.5, 1.25, 2.5 UG/G BW IN 10 µL TRIOCTANOIN ONCE (STUDY DURATION: 9 MO), Tumor Site: Type of Lesion: LIVER: HEPATOMA) is “active; positive”; the carcinogen call (Species: MOUSE, Strain/Sex: CD-1/FEMALE, Route: DERMAL, 11.5 UMOL IN WEEKS 1 AND 2 THEN 5.7 UMOL IN WEEKS 3 AND 4 FOLLOWED BY 3.8 UMOL/WK FOR 28 WK (STUDY DURATION: 42 WK), Tumor Site: Type of Lesion: SKIN: PAPILLOMA, CARCINOMA) was “active; positive”; the carcinogen call (Species: MOUSE, Strain/Sex: STRAIN-A/FEMALE, Route: INTRAPERITONEAL, 34, 68 NMOL/G BW IN 5 µL TRIOCTANOIN ONCE (STUDY DURATION: 6 MO), 34, 68 NMOL/G BW IN 5 µL TRIOCTANOIN ONCE (STUDY DURATION: 6 MO), Tumor Site: Type of Lesion: LUNG: ADENOMA) is “active; positive”; the carcinogen call (Species: RAT, Strain/Sex: SPRAGUE-DAWLEY/FEMALE, Route: INTRAMUSCULAR, 1.15, 2.30 UMOL IN 0.25 ML TRIOCTANOIN 1/WK FOR 10 WK (STUDY DURATION: 18 MO), 1.15, 2.30 UMOL IN 0.25 ML TRIOCTANOIN 1/WK FOR 10 WK (STUDY DURATION: 18 MO), Tumor Site: Type of Lesion: INJECTION SITE: SARCOMA, MAMMARY GLAND: TUMOR) was “active; positive”.
For the compound `NC1=NCN([C@@H]2O[C@H](CO)[C@@H](O)[C@H]2O)C(=O)N1`, the carcinogen call (Species: RAT, Strain/Sex: F344/MALE, Route: INTRAPERITONEAL, 50 MG/KG IN 0.9% SALINE 3/WK FOR 1 YR (STUDY DURATION: 1 YR)) is “inactive; negative”.
With `C[C@]12CC[C@@H]3c4cc(O)c(O)cc4CC[C@H]3[C@@H]1CC[C@@H]2O`, the carcinogen call (Species: MOUSE, Strain/Sex: CD-1/FEMALE, Route: SUBCUTANEOUS, 2 UG/D IN CORN OIL ON DAYS 1-5 OF LIFE (STUDY DURATION: 12-18 WK), Tumor Site: Type of Lesion: UTERUS: ADENOCARCINOMA) is “active; positive”.
Consider `Clc1c2ccccc2cc2c1ccc1ccccc12`, for which the carcinogen call (Species: MOUSE, Strain/Sex: B6C3F1/MALE, Route: INTRAPERITONEAL, 1600 NMOL (TOTAL DOSE) ADMINISTERED IN DOSES OF 1/7 WITHIN 24 HR OF BIRTH, 2/7 AT 8 DAYS OF AGE AND 4/7 AT 15 DAYS OF, Tumor Site: Type of Lesion: LIVER: ADENOMA, CARCINOMA) is “active; positive”.
Turning to `C=CC(=O)NCO`, the carcinogen call runs as follows: (Species: MOUSE, Strain/Sex: B6C3F1/FEMALE, Route: GAVAGE, 25, 50 MG/KG IN DEIONIZED WATER 5 D/WK FOR 103 WK (STUDY DURATION: 105 WK), 25, 50 MG/KG IN DEIONIZED WATER 5 D/WK FOR 103 WK (STUDY DURATION: 105 WK), Tumor Site: Type of Lesion: HARDERIAN GLAND: ADENOMA, ADENOMA OR CARCINOMA, LIVER: HEPATOCELLULAR ADENOMA, HEPATOCELLULAR ADENOMA OR CARCINOMA, LUNG, Tumor Site: Type of Lesion: HARDERIAN GLAND: ADENOMA, ADENOMA OR CARCINOMA, LIVER: HEPATOCELLULAR ADENOMA, HEPATOCELLULAR ADENOMA OR CARCINOMA, LUNG) “active; positive”; (Species: MOUSE, Strain/Sex: B6C3F1/MALE, Route: GAVAGE, 25, 50 MG/KG IN DEIONIZED WATER 5 D/WK FOR 103 WK (STUDY DURATION: 105 WK), 25, 50 MG/KG IN DEIONIZED WATER 5 D/WK FOR 103 WK (STUDY DURATION: 105 WK), Tumor Site: Type of Lesion: HARDERIAN GLAND: ADENOMA, ADENOMA OR CARCINOMA, LIVER: HEPATOCELLULAR ADENOMA, HEPATOCELLULAR CARCINOMA, LUNG: ALVEOLAR/, Tumor Site: Type of Lesion: HARDERIAN GLAND: ADENOMA, ADENOMA OR CARCINOMA, LIVER: HEPATOCELLULAR ADENOMA, HEPATOCELLULAR CARCINOMA, LUNG: ALVEOLAR/) “active; positive”; (Species: RAT, Strain/Sex: F344/FEMALE, Route: GAVAGE, 6, 12 MG/KG IN DEIONIZED WATER 5 D/WK FOR 103 WK (STUDY DURATION: 105 WK), 6, 12 MG/KG IN DEIONIZED WATER 5 D/WK FOR 103 WK (STUDY DURATION: 105 WK)) “inactive; negative”; (Species: RAT, Strain/Sex: F344/MALE, Route: GAVAGE, 6, 12 MG/KG IN DEIONIZED WATER 5 D/WK FOR 103 WK (STUDY DURATION: 105 WK), 6, 12 MG/KG IN DEIONIZED WATER 5 D/WK FOR 103 WK (STUDY DURATION: 105 WK)) “inactive; negative”.
As for `CCOCn1c(-c2ccc(Cl)cc2)c(C#N)c(Br)c1C(F)(F)F`, the carcinogen call runs as follows: (Species: Mouse, Strain/Sex: CD-1/Female (65/group), Route: Oral, 20, 120, 240 ppm in diet for 80 wk, 20, 120, 240 ppm in diet for 80 wk) “inactive; negative (study details not given in source; purity 94.5%)”; (Species: Mouse, Strain/Sex: CD-1/Male (65/group), Route: Oral, 20, 120, 240 ppm in diet for 80 wk, 20, 120, 240 ppm in diet for 80 wk) “inactive; negative (study details not given in source; purity 94.5%)”; (Species: Rat, Strain/Sex: Sprague-Dawley/Female (65/group), Route: Oral, 60, 300, 600 ppm in diet for up to 104 wk, 60, 300, 600 ppm in diet for up to 104 wk) “inactive; negative (study details not given in source; purity 94.5%)”; (Species: Rat, Strain/Sex: Sprague-Dawley/Male (65/group), Route: Oral, 60, 300, 600 ppm in diet for up to 104 wk, 60, 300, 600 ppm in diet for up to 104 wk) “inactive; negative (study details not given in source; purity 94.5%)”.
Regarding `C=CCOC(=O)CC(C)C`, the carcinogen call runs as follows: (Species: MOUSE, Strain/Sex: B6C3F1/FEMALE, Route: GAVAGE, 31, 62 MG/KG IN CORN OIL FOR 103 WK, 31, 62 MG/KG IN CORN OIL FOR 103 WK, Tumor Site: Type of Lesion: LYMPHATIC SYSTEM: MALIGNANT LYMPHOMA) “active; positive”; (Species: RAT, Strain/Sex: F344/MALE, Route: GAVAGE, 31, 62 MG/KG IN CORN OIL FOR 103 WK, 31, 62 MG/KG IN CORN OIL FOR 103 WK, Tumor Site: Type of Lesion: HEMATOPOIETIC SYSTEM (LEUKEMIA): MONONUCLEAR CELL LEUKEMIA) “active; positive”.

Source of the values: PubChem BioAssay AID1259411 (Chemical Carcinogenesis Research Information System (CCRIS), 2018).
